Patent US20240254129A1, “HETEROCYCLIC COMPOUNDS AND USES THEREOF” (Kumquat Biosciences Inc., priority 2021, published 2024)

Tests used:
wildtype Kras / hSOS1 = biological target: T1, wildtype Kras / hSOS1 (Homo sapiens, UniProt P01116); experiment: HTRF assay, wildtype Kras / SOS1 interaction; format: binding; details: compound nos. 401-703; read-out: IC50 against wildtype Kras
T1 construct: made in house; host or cells: E. coli BL21 (DE3)
Procedure, shortened: (§1)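 Compounds tested in duplicate from 10 μM down to 0.01 μM, incubated about 10 min or longer with GST-K-Ras/anti-GST-Eu and His-hSOS1/anti-6His-XL665 in ~5 mM HEPES pH 7.4 buffer with ~150 mM NaCl, DTT, BSA and Igepal. IC50 derived from 665/620 nm emission ratio.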

[1] = biological target: GST-tagged K-Ras mutant / His-tagged hSOS1 (Homo sapiens, UniProt P01116); experiment: HTRF assay, K-Ras mutant / SOS1 interaction; format: binding; details: compound nos. 401-703; read-out: IC50 against mutant Kras
Procedure, shortened: as §1

Sequence of GST-tagged K-Ras mutant / His-tagged hSOS1 (P01116 whole entry G12D, form open): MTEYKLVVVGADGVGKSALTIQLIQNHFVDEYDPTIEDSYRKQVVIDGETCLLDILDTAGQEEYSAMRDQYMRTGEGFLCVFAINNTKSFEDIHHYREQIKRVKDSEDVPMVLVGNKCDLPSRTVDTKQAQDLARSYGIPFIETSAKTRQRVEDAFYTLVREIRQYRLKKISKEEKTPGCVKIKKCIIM
T1 sequence (P01116 1-188 isoform P01116-2): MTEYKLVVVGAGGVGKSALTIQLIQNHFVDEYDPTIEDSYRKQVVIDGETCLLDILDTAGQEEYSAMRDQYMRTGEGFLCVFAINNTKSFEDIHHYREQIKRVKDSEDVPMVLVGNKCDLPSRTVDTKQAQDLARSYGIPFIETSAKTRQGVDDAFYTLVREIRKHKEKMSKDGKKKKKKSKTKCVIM

Row | IC50 (wildtype Kras / hSOS1) [nM] | IC50 [1] [nM] | Structure (SMILES)
1 | < 500 | > 500 | Cc1ccc(C(N)=O)cc1-c1c(Cl)cc2c(N3CC4CCC(C3)N4)nc(OCC34CCCN3CCC4)nc2c1F [Compound 417, 3-(4-(3,8-diazabicyclo-[3.2.1]octan-3-yl)-6-chloro-8-fluoro-2-((tetrahydro-1H-pyrrolizin-7a(5H)-yl)meth-oxy)quinazolin-7-yl)-4-methylbenzamide]
2 | < 500 | > 500 | Oc1cc(-c2ncc3c(N4C[C@H]5CC[C@@H](C4)N5)nc(OC[C@@]45CCCN4C[C@H](F)C5)nc3n2)c2ccccc2c1 [Compound 418, 4-(5-((1R,5S)-3,8-diazabicyclo[3.2.1]octan-3-yl)-7-(((2R,7aS)-2-fluorotetrahydro-1H-pyrrolizin-7a(5H)-yl)methoxy)pyrimido[4,5-d]pyrimidin-2-yl)naphthalen-2-ol]
3 | < 500 | < 500 | CN1CCC[C@H]1COc1nc2c(c(N3CCNCC(F)(F)C3)n1)CCN(c1cc(O)cc3ccccc13)C2 [Compound 419, (S)-4-(4-(6,6-difluoro-1,4-diazepan-1-yl)-2-((1-methylpyrrolidin-2-yl)methoxy)-5,8-dihydropyrido[3,4-d]pyrimidin-7(6H)-yl)naphthalen-2-ol]
4 | < 500 | > 500 | CN1CCCC1CCn1nc(N2CC3CCC(C2)N3)c2ccc(-c3ccc(F)c4sc(N)nc34)c(F)c2c1=O (stereo not shown) [Compound 420, 7-(2-amino-7-fluorobenzo-[d]thiazol-4-yl)-4-(3,8-diazabicyclo[3.2.1]octan-3-yl)-8-fluoro-2-(2-(1-methyl-pyrrolidin-2-yl)ethyl)phthal-azin-1(2H)-one]
5 | < 500 | > 500 | Fc1c(-c2cccc3c2C2CC2C3)c(Cl)cc2c(N3CC4CCC(C3)N4)nc(OC[C@@]34CCCN3C[C@H](F)C4)nc12 (stereo partly drawn) [Compound 422, 4-(3,8-diazabicyclo[3.2.1]-octan-3-yl)-6-chloro-8-fluoro-2-(((2R,7aS)-2-fluoro-tetrahydro-1H-pyrrolizin-7a(5H)-yl)methoxy)-7-(1,1a,6,6a-tetrahydrocyclo-propa[a]inden-2-yl)quin-azoline]
6 | < 500 | > 500 | Fc1c(-c2cccc3scc(Cl)c23)c(Cl)cc2c(N3CC4CCC(C3)N4)nc(OC[C@@]34CCCN3C[C@H](F)C4)nc12 [Compound 423, 4-(3,8-diazabicyclo[3.2.1]-octan-3-yl)-6-chloro-7-(3-chlorobenzo[b]thiophen-4-yl)-8-fluoro-2-(((2R,7aS)-2-fluorotetrahydro-1H-pyrrolizin-7a(5H)-yl)meth-oxy)quinazoline]
7 | < 500 | > 500 | CO[C@@H]1CN(C)C[C@H]1Oc1nc(N2CC3CCC(C2)N3)c2cc(CCC#N)c(-c3ccc(F)c4sc(N)nc34)c(F)c2n1 [Compound 424, 3-(7-(2-amino-7-fluoro-benzo[d]thiazol-4-yl)-4-(3,8-diazabicyclo[3.2.1]octan-3-yl)-8-fluoro-2-(((3R,4R)-4-methoxy-1-methylpyrrolidin-3-yl)oxy)quinazolin-6-yl)-propanenitrile]
8 | < 500 | > 500 | Cc1cc2[nH]ncc2c(-c2c(Cl)cc3c(N4CC5CCC(C4)N5)nc(OC[C@@]45CCCN4C[C@H](F)C5)nc3c2F)c1Cl [Compound 425, 4-(3,8-diazabicyclo[3.2.1]-octan-3-yl)-6-chloro-7-(5-chloro-6-methyl-1H-indazol-4-yl)-8-fluoro-2-(((2R,7aS)-2-fluorotetrahydro-1H-pyrrolizin-7a(5H)-yl)meth-oxy)quinazoline]
9 | < 500 | > 500 | Cc1ccc2sc(N)nc2c1-c1c(Cl)cc2c(N3CCNCC(F)(F)C3)nc(OCC34CCCN3CCC4)nc2c1O [Compound 426, 7-(2-amino-5-methylbenzo-[d]thiazol-4-yl)-6-chloro-4-(6,6-difluoro-1,4-diazepan-1-yl)-2-((tetrahydro-1H-pyrrolizin-7a(5H)-yl)meth-oxy)quinazolin-8-ol]
10 | < 500 | < 500 | CN1CCC[C@H]1COc1nc(N2CCCC(C(N)=O)CC2)c2cc(Cl)c(-c3cccc4sc(N)nc34)c(F)c2n1 (stereo partly drawn) [Compound 427, 1-(7-(2-aminobenzo[d]-thiazol-4-yl)-6-chloro-8-fluoro-2-(((S)-1-methylpyr-rolidin-2-yl)methoxy)quin-azolin-4-yl)azepane-4-carboxamide]
11 | < 500 | > 500 | CN(C)CC1(COc2nc(N3CC4CCC(C3)N4)c3ccc(-c4ccc(F)c5sc(N)nc45)c(F)c3n2)CC1 [Compound 428, 4-(4-(3,8-diazabicyclo-[3.2.1]-octan-3-yl)-2-((1-((dimethylamino)methyl)-cyclopropyl)methoxy)-8-fluoroquinazolin-7-yl)-7-fluorobenzo[d]thiazol-2-amine]
12 | < 500 | > 500 | Nc1cccc(-c2c(Cl)cc3c(N4CCCCCC4)nc(OCC45CCCN4CCC5)nc3c2F)c1F [Compound 430, 3-(4-(azepan-1-yl)-6-chloro-8-fluoro-2-((tetrahydro-1H-pyrrolizin-7a(5H)-yl)meth-oxy)quinazolin-7-yl)-2-fluoroaniline]
13 | < 500 | < 500 | Nc1nc2c(-c3c(Cl)cc4c(N5CCCC(N)CC5)nc(OC[C@@]56CCCN5C[C@H](F)C6)nc4c3F)ccc(F)c2s1 (stereo partly drawn) [Compound 431, 4-(4-(4-aminoazepan-1-yl)-6-chloro-8-fluoro-2-(((2R,7aS)-2-fluorotetra-hydro-1H-pyrrolizin-7a(5H)-yl)methoxy)quinazolin-7-yl)-7-fluorobenzo[d]thiazol-2-amine]
14 | < 500 | > 500 | CN1CCC[C@H]1COc1nc2c(c(N3CCNCC(F)(F)C3)n1)CCC(c1cccc3sc(N)nc13)C2 (stereo partly drawn) [Compound 432, 4-(4-(6,6-difluoro-1,4-diazepan-1-yl)-2-(((S)-1-methylpyrrolidin-2-yl)methoxy)-5,6,7,8-tetrahydroquinazolin-7-yl)benzo[d]thiazol-2-amine]
15 | < 500 | < 500 | N#CC1CCCN(c2nc(OC[C@@]34CCCN3C[C@H](F)C4)nc3c(F)c(-c4ccc(F)c5sc(N)nc45)c(Cl)cc23)CC1 (stereo partly drawn) [Compound 433, 1-(7-(2-amino-7-fluoro-benzo[d]thiazol-4-yl)-6-chloro-8-fluoro-2-(((2R,7aS)-2-fluorotetra-hydro-1H-pyrrolizin-7a(5H)-yl)methoxy)quin-azolin-4-yl)azepane-4-carbonitrile]
16 | < 500 | < 500 | Nc1nc2c(-c3c(Cl)cc4c(N5CCC[C@@H](N)CC5)nc(OC[C@@]56CCCN5C[C@H](F)C6)nc4c3F)ccc(F)c2s1 [Compound 434, 4-(4-((R)-4-aminoazepan-1-yl)-6-chloro-8-fluoro-2-(((2R,7aS)-2-fluorotetra-hydro-1H-pyrrolizin-7a(5H)-yl)methoxy)quinazolin-7-yl)-7-fluorobenzo[d]thiazol-2-amine]
17 | < 500 | < 500 | Nc1nc2c(-c3c(Cl)cc4c(N5CCCN(S(=O)(=O)C6CC6)CC5)nc(OC[C@@]56CCCN5C[C@H](F)C6)nc4c3F)ccc(F)c2s1 [Compound 435, 4-(6-chloro-4-(4-(cyclo-propylsulfonyl)-1,4-diazepan-1-yl)-8-fluoro-2-(((2R,7aS)-2-fluorotetra-hydro-1H-pyrrolizin-7a(5H)-yl)methoxy)quinazolin-7-yl)-7-fluorobenzo[d]thiazol-2-amine]
18 | < 500 | > 500 | Cc1c(N)sc2cccc(-c3ccc4c(N5CC6CCC(C5)N6)nc(OC[C@@]56CCCN5C[C@H](F)C6)nc4c3F)c12 [Compound 437, 4-(4-(3,8-diazabicyclo-[3.2.1]octan-3-yl)-8-fluoro-2-(((2R,7aS)-2-fluorotetra-hydro-1H-pyrrolizin-7a(5H)-yl)methoxy)quinazolin-7-yl)-3-methylbenzo[b]thio-phen-2-amine]
19 | < 500 | > 500 | Cc1ccc2cnn(C)c2c1-c1c(Cl)cc2c(N3CC4CCC(C3)N4)nc(OCC3(CN4CCCC4)CC3)nc2c1F [Compound 438, 4-(3,8-diazabicyclo[3.2.1]-octan-3-yl)-6-chloro-7-(1,6-dimethyl-1H-indazol-7-yl)-8-fluoro-2-((1-(pyrrolidin-1-ylmethyl)cyclopropyl)meth-oxy)quinazoline]
20 | < 500 | < 500 | CN1CCC[C@H]1COc1nc(N2CCCC(NS(C)(=O)=O)CC2)c2cc(Cl)c(-c3cccc4sc(N)nc34)c(F)c2n1 (stereo partly drawn) [Compound 439, N-(1-(7-(2-aminobenzo[d]-thiazol-4-yl)-6-chloro-8-fluoro-2-(((S)-1-methyl-pyrrolidin-2-yl)methoxy)-quinazolin-4-yl)azepan-4-yl)methanesulfonamide]
21 | < 500 | > 500 | Nc1cccc(-c2c(Cl)cc3c(N4CC5CCC(C4)N5)nc(OCC45CCCN4CCC5)nc3c2F)c1F [Compound 440, 3-(4-(3,8-diazabicyclo-[3.2.1]-octan-3-yl)-6-chloro-8-fluoro-2-((tetrahydro-1H-pyrrolizin-7a(5H)-yl)meth-oxy)quinazolin-7-yl)-2-fluoroaniline]
22 | < 500 | > 500 | CN1CCC[C@H]1COc1nc(N2CCCC(N3CC(N)C3)CC2)c2cc(Cl)c(-c3cccc4sc(N)nc34)c(F)c2n1 (stereo partly drawn) [Compound 441, 4-(4-(4-(3-aminoazetidin-1-yl)azepan-1-yl)-6-chloro-8-fluoro-2-(((S)-1-methyl-pyrrolidin-2-yl)methoxy)-quinazolin-7-yl)benzo[d]-thiazol-2-amine]
23 | < 500 | < 500 | CN1CCC[C@H]1COc1nc(N2CCCCC(N)C2)c2cc(Cl)c(-c3cccc4sc(N)nc34)c(F)c2n1 (stereo partly drawn) [Compound 442, 4-(4-(3-aminoazepan-1-yl)-6-chloro-8-fluoro-2-(((S)-1-methylpyrrolidin-2-yl)-methoxy)quinazolin-7-yl)-benzo[d]thiazol-2-amine]
